How the values were obtained:
MM1 cells [1] = assay: Effect on the proliferation of MM1 cells; format: cell-based, rat; details: 12.5 μM or 25 μM cPA, 10% FBS, 24 hours and 72 hours
Description: 12.5 μM and 25 μM cPA were added to media containing 10% FBS, and then the cells were cultured under conditions of 37° C. and 5% CO2 for 24 hours and 72 hours. The number of the MM1 cells was counted using a hemocytometer.

HT-1080 cells = assay: In vitro invasion assay of HT-1080 cells in the absence of serum/LPA; format: cell-based, human
Description: HT-1080 cells were cultured under conditions of 37° C. and 5% CO2 in Eagle's MEMI (Nissui) supplemented with a one-hundredth volume of nonessential amino acid solution (GIBCO BRL) and 10% FBS. […] 4 hours later, the cells were fixed, and then the cells that had invaded were counted.

MM1 cells [2] = assay: Measurement of intracellular cAMP in MM1 cells; format: cell-based, rat; details: 25 μM cPA or 10 μM Forskolin, pretreated with 1 mM IBMX
Description: After a certain time period, 10% ice-cooled TCA was added to stop the reaction. The centrifuged supernatant was washed 4 times with water-saturated diethylether to remove TCA, and then placed under nitrogen gas flow at 60° C. to remove the solvent completely. cAMP in the resultant sample was measured using a cyclic AMP [^3H] assay system (Amersham).

MM1 cells [3] = details: Int. J. Cancer 81, 918-922 (1999), cited from earlier work; for invasion suppressing action on LPA-induced invasion (in words): reported by Mukai et al.; for suppressed LPA-induced invasion by: studied by Mukai et al.
MM1 cells [4] = assay: In vitro invasion assay, LPA-induced invasion of MM1 cells across mesothelial cell monolayer; format: cell-based, rat; details: 25 μM cPA derivative, 25 μM LPA, 20 hours
Description: (§1) The abdomen of a male DONRYU rat (300 g, NIPPON BIO-SUPP. CENTER) was opened aseptically. The thus obtained mesenterium was treated with 0.25% trypsin at 37° C. for 15 minutes, filtrated with a 150 μm stainless mesh, and then centrifuged to collect mesothelial cells. The cells were cultured under conditions of 37° C. and 5% CO2 in a medium which was obtained by adding 10% FBS to Eagle's MEMI (Nissui) supplemented with Eagle's MEM amino acid vitamin medium (Nissui) in a volume twice as great as that of the MEMI. A mesothelial cell monolayer which had reached a confluent density after 1 week of culturing was used for invasion assay.
(§2) The MM1 cells, which are highly invasive clones of rat ascites hepatoma cells (AH-130), were established by Mukai et al., (Int. J. Cancer : 81, 918-922 (1999)), and was cultured under the same conditions as those for mesothelial cells.
(§3) In vitro invasion assay was developed by Akedo et al (Akedo, H et al., Cancer Res. 46, 2416-2422 (1986)). MM1 cells were multi-layer-cultured on the mesothelial cell layer, which had been grown to reach a confluent density, in the presence of 10% FBS or 25 μM LPA (SIGMA). 25 μM cPA was then added. The cells were cultured under conditions of 37° C. and 5% CO2 for 20 hours, and then fixed with 10% formalin. The number of colonies of MM1 cells that had invaded was counted under a phase-contrast microscope (FIG. 3).
cPA and LPA were ice-cooled in PBS containing 0.1% fatty-acid free BSA (SIGMA), ultrasonicated, emulsified, stored at −20° C., and then used.
0.5 μM, 1 μM and 10 μM carba-cPA were added to MM1 cells, and then in vitro invasion assay was performed similarly to (1-1) in the presence of 25 μM LPA.
The following reagents were respectively added to an in vitro invasion assay system so as to examine their effects on MM1 cell invasion in the presence of 25 μM LPA: Forskolin (Wako) which directly activates adenylate cyclase (cAMP synthase); cholera toxin (CTX) (GIBCO BRL) which prevent the deactivation of G protein (Gs) which activates adenylate cyclase; Bt2cAMP (nacalai tesque) which can pass through the membrane and functions in a manner similar to that of cAMP when it enters the cell; or isobutylmethylxanthine (IBMX, 3-isobutyl-1-methylxanthine) (SIGMA) which inhibits phosphodiesterase (cAMP degrading enzyme).

MM1 cells [5] = assay: In vitro invasion assay, FBS-induced invasion of MM1 cells; format: cell-based, rat; details: 25 μM cPA derivative, 10% FBS, 20 hours
Description: as §1, §2
as §3, with “3). […]” for “3).”

| Compound | effect on MM1 cell proliferation (in words) (MM1 cells [1]) | suppressed LPA-induced invasion by (MM1 cells [3]) | other results |
| --- | --- | --- | --- |
| carba-Pal-cPA [cPA-18] | no effect on MM1 cell proliferation | – | invasion suppressing activity on HT-1080 cells (in words) (HT-1080 cells; 10 μM cPA, absence of serum/LPA, 4 hours): invasion suppressing activity on the cells at the same strength as or a level stronger than that exhibited by natural cPA; change of intracellular cAMP concentration (in words) (MM1 cells [2]; listed as Carba-Pal-cPA): a similar result was obtained; change of intracellular cAMP concentration (in words) (MM1 cells [2]; listed as carba-Pal-cPA): the change of cAMP concentration was not observed |
| CCCCCCCC/C=C\CCCCCCCC(=O)OC[C@@H]1COP(=O)(O)O1 [Ole-cPA] | proliferation suppressing activity | approximately 60% | invasion suppressing action on LPA-induced invasion (in words) (MM1 cells [3]): weak |
| CCCCCC/C=C\CCCCCCCC(=O)OCC1COP(=O)([O-])O1.[Na+] (stereo not shown) [ΔPal-cPA] | proliferation suppressing activity | around 50% | invasion suppressing action on LPA-induced invasion (in words) (MM1 cells [3]): weak |
| lysophosphatidic acid [LPA, reference compound] | – | – | promotion of HT-1080 cell invasion (in words) (HT-1080 cells; 25 μM LPA added): the invasion was no longer promoted |
| CCCCCCCCCCCC(=O)OCC1COP(=O)([O-])O1.[Na+] (stereo not shown) [Lau-cPA] | – | around 50% | – |
| CCC=CCC=CCC=CCC=CCC=CCCCC(=O)OCC1COP(=O)(O)O1 (stereo not shown) [cPA-12] | – | – | suppression of LPA-induced invasion (in words) (MM1 cells [4]): not suppressed; suppression of FBS-induced invasion (MM1 cells [5]): approximately 70% |
| CCCCCC[C@@H]1C[C@@H]1CCCCCCCC(=O)OC[C@@H]1COP(=O)(O)O1 [PHYLPA] | – | around 50% | – |
| CCCCCCCCCCCCCCCCCCCC(=O)OCC1COP(=O)([O-])O1.[Na+] (stereo not shown) [Ara-cPA] | – | around 50% | – |

From patent US20040214799A1, “Cancerous metastasis inhibitors containing carbacyclic phosphatidic acid derivatives” (priority 2001, published 2004)
